Test system: not listed separately
Experiment: DRUGMATRIX: Phosphodiesterase PDE3 enzyme inhibition (substrate: [3H]cAMP + cAMP)
Assay type: tissue-based, Homo sapiens
Settings: platelet; Not Active = under 50% inhibition at 10 µM
In the case of CCN(CC)N=O [N-NITROSODIETHYLAMINE], the IC50 is reported as “Not Active” and the Ki is reported as “Not Active”. In the case of CCC(C)(C)C(=O)O[C@H]1C[C@@H](C)C=C2C=C[C@H](C)[C@H](CC[C@@H]3C[C@@H](O)CC(=O)O3)[C@H]21 [SIMVASTATIN], the IC50 is reported as “Not Active” and the Ki is reported as “Not Active”. With CN1C[C@H](CNC(=O)OCc2ccccc2)C[C@@H]2c3cccc4c3c(cn4C)C[C@H]21 [METERGOLINE] the IC50 was “Not Active” and the Ki was “Not Active”. For CCN(CC)CCNC(=O)c1cc(Cl)c(N)cc1OC [METOCLOPRAMIDE], the IC50 was “Not Active” and the Ki was “Not Active”. For Cc1ccc(Cl)c(Nc2ccccc2C(=O)O)c1Cl [MECLOFENAMIC ACID], the IC50 was “Not Active” and the Ki was “Not Active”. In the case of CO[C@@]12[C@H](COC(N)=O)C3=C(C(=O)C(C)=C(N)C3=O)N1C[C@@H]1N[C@@H]12 [MITOMYCIN], the IC50 is reported as “Not Active” and the Ki is reported as “Not Active”.

Test system: not listed separately
Experiment: DRUGMATRIX: Sodium/nucleoside co-transporter radioligand binding (ligand: nitrobenzylthioinosine)
Assay type: cell membranes, Cavia porcellus, Dunkin-Hartley, Cerebral cortex, Membrane
Settings: Not Active = under 50% inhibition at 10 µM
In the case of CCN(CC)N=O [N-NITROSODIETHYLAMINE], the IC50 is reported as “Not Active” and the Ki is reported as “Not Active”. In the case of CCC(C)(C)C(=O)O[C@H]1C[C@@H](C)C=C2C=C[C@H](C)[C@H](CC[C@@H]3C[C@@H](O)CC(=O)O3)[C@H]21 [SIMVASTATIN], the IC50 is reported as “Not Active” and the Ki is reported as “Not Active”. In the case of CN1C[C@H](CNC(=O)OCc2ccccc2)C[C@@H]2c3cccc4c3c(cn4C)C[C@H]21 [METERGOLINE], the IC50 is reported as “Not Active” and the Ki is reported as “Not Active”. For CCN(CC)CCNC(=O)c1cc(Cl)c(N)cc1OC [METOCLOPRAMIDE], the IC50 was “Not Active” and the Ki was “Not Active”. With Cc1ccc(Cl)c(Nc2ccccc2C(=O)O)c1Cl [MECLOFENAMIC ACID] the IC50 was “Not Active” and the Ki was “Not Active”. With CO[C@@]12[C@H](COC(N)=O)C3=C(C(=O)C(C)=C(N)C3=O)N1C[C@@H]1N[C@@H]12 [MITOMYCIN] the IC50 was “Not Active” and the Ki was “Not Active”.

Biological target: T1, Receptor-type tyrosine-protein phosphatase C (Homo sapiens, UniProt P08575);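 also: inhibition of CD45 enzyme activity measured using DiFMUP as substrate; in other assays of this panel Not Active means under 50% inhibition at 10 µM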
T1 sequence (P08575 whole entry): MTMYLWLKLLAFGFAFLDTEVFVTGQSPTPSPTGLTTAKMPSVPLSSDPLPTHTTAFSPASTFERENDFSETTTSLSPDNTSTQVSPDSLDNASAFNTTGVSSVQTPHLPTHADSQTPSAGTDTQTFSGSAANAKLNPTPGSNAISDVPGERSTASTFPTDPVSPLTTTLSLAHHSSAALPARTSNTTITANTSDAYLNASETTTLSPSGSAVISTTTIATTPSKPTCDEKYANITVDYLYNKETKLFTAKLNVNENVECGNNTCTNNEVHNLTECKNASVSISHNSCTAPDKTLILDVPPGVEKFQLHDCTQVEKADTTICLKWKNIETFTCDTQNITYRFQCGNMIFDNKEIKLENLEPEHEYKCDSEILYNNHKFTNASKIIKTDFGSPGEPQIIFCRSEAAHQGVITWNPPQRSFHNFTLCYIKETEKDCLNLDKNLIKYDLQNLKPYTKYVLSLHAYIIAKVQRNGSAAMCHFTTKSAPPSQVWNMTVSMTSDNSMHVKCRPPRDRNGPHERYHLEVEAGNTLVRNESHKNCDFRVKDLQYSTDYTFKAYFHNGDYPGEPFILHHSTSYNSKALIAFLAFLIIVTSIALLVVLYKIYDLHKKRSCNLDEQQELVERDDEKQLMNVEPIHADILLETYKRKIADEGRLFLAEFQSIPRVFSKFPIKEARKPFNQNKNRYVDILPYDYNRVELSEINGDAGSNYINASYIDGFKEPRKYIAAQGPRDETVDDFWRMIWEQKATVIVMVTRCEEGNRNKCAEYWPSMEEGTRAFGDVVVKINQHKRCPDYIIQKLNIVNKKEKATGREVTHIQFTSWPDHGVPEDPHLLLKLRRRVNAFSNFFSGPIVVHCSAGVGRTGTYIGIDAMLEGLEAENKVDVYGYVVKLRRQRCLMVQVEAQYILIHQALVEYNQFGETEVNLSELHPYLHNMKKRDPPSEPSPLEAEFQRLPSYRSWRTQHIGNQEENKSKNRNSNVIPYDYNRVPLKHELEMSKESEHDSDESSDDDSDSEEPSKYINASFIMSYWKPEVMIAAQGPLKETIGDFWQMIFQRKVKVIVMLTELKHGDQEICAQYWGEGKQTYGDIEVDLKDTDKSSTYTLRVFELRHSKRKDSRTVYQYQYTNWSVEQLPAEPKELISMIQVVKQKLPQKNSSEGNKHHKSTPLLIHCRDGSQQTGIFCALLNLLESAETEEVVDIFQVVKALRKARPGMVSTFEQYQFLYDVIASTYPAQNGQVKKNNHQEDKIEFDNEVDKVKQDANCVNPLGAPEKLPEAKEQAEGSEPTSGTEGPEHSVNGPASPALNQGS
Experiment: not given
Set-up: species or system Escherichia coli
Settings: not given
In the case of CCN(CC)N=O [N-NITROSODIETHYLAMINE], the IC50 is reported as “Not Active”. In the case of CCC(C)(C)C(=O)O[C@H]1C[C@@H](C)C=C2C=C[C@H](C)[C@H](CC[C@@H]3C[C@@H](O)CC(=O)O3)[C@H]21 [SIMVASTATIN], the IC50 is reported as “Not Active”. In the case of CN1C[C@H](CNC(=O)OCc2ccccc2)C[C@@H]2c3cccc4c3c(cn4C)C[C@H]21 [METERGOLINE], the IC50 is reported as “Not Active”. In the case of CCN(CC)CCNC(=O)c1cc(Cl)c(N)cc1OC [METOCLOPRAMIDE], the IC50 is reported as “Not Active”. For Cc1ccc(Cl)c(Nc2ccccc2C(=O)O)c1Cl [MECLOFENAMIC ACID], the IC50 was “Not Active”. For CO[C@@]12[C@H](COC(N)=O)C3=C(C(=O)C(C)=C(N)C3=O)N1C[C@@H]1N[C@@H]12 [MITOMYCIN], the IC50 was “Not Active”.

Test system: not listed separately
Experiment: DRUGMATRIX: GABAA, Flunitrazepam, Central radioligand binding (ligand: [3H] Flunitrazepam)
Assay type: cell membranes, Rattus norvegicus, Wistar, Brain, Membrane
Settings: Not Active = under 50% inhibition at 10 µM
In the case of CCN(CC)N=O [N-NITROSODIETHYLAMINE], the IC50 is reported as “Not Active” and the Ki is reported as “Not Active”. For CCC(C)(C)C(=O)O[C@H]1C[C@@H](C)C=C2C=C[C@H](C)[C@H](CC[C@@H]3C[C@@H](O)CC(=O)O3)[C@H]21 [SIMVASTATIN], the IC50 was “Not Active” and the Ki was “Not Active”. In the case of CN1C[C@H](CNC(=O)OCc2ccccc2)C[C@@H]2c3cccc4c3c(cn4C)C[C@H]21 [METERGOLINE], the IC50 is reported as “Not Active” and the Ki is reported as “Not Active”. For CCN(CC)CCNC(=O)c1cc(Cl)c(N)cc1OC [METOCLOPRAMIDE], the IC50 was “Not Active” and the Ki was “Not Active”. With Cc1ccc(Cl)c(Nc2ccccc2C(=O)O)c1Cl [MECLOFENAMIC ACID] the IC50 was “Not Active” and the Ki was “Not Active”. With CO[C@@]12[C@H](COC(N)=O)C3=C(C(=O)C(C)=C(N)C3=O)N1C[C@@H]1N[C@@H]12 [MITOMYCIN] the IC50 was “Not Active” and the Ki was “Not Active”.

Biological target: T2, Interstitial collagenase (Homo sapiens, UniProt P03956);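 also: MMP-1 enzyme inhibition assay using a peptide substrate; in other assays of this panel Not Active means under 50% inhibition at 10 µM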
T2 sequence (P03956 whole entry): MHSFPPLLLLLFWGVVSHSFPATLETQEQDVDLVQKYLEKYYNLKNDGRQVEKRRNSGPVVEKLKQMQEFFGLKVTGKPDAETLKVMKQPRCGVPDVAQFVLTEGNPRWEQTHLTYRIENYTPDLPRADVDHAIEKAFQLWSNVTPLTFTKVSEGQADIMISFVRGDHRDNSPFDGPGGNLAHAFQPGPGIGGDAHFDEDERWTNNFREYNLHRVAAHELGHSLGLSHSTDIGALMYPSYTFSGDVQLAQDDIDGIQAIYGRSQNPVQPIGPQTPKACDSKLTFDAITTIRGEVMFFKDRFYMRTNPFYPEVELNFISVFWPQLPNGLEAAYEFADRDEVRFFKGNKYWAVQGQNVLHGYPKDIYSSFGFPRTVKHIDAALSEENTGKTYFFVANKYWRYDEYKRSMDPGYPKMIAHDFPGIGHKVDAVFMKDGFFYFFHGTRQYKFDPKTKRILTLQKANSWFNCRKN
Experiment: biochemical
Assay type: tissue-based, Rheumatoid synovial fibroblasts
Settings: not given
In the case of CCN(CC)N=O [N-NITROSODIETHYLAMINE], the IC50 is reported as “Not Active”. In the case of CCC(C)(C)C(=O)O[C@H]1C[C@@H](C)C=C2C=C[C@H](C)[C@H](CC[C@@H]3C[C@@H](O)CC(=O)O3)[C@H]21 [SIMVASTATIN], the IC50 is reported as “Not Active”. In the case of CN1C[C@H](CNC(=O)OCc2ccccc2)C[C@@H]2c3cccc4c3c(cn4C)C[C@H]21 [METERGOLINE], the IC50 is reported as “Not Active”. For CCN(CC)CCNC(=O)c1cc(Cl)c(N)cc1OC [METOCLOPRAMIDE], the IC50 was “Not Active”. With Cc1ccc(Cl)c(Nc2ccccc2C(=O)O)c1Cl [MECLOFENAMIC ACID] the IC50 was “Not Active”. With CO[C@@]12[C@H](COC(N)=O)C3=C(C(=O)C(C)=C(N)C3=O)N1C[C@@H]1N[C@@H]12 [MITOMYCIN] the IC50 was “Not Active”.

Biological target: T3, Leukotriene C4 synthase (Cavia porcellus, UniProt A6XA80);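 also: enzyme inhibition assay of leukotriene C4 synthase, using LTA4 as the substrate; in other assays of this panel Not Active means under 50% inhibition at 10 µM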
T3 sequence (A6XA80 whole entry): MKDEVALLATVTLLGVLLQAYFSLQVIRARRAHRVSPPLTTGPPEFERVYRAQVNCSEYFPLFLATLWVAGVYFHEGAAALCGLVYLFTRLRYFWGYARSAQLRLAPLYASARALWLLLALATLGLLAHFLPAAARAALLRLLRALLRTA
Experiment: biochemical
Assay type: tissue-based, Lung
Settings: not given
In the case of CCN(CC)N=O [N-NITROSODIETHYLAMINE], the IC50 is reported as “Not Active”. With CCC(C)(C)C(=O)O[C@H]1C[C@@H](C)C=C2C=C[C@H](C)[C@H](CC[C@@H]3C[C@@H](O)CC(=O)O3)[C@H]21 [SIMVASTATIN] the IC50 was “Not Active”. In the case of CN1C[C@H](CNC(=O)OCc2ccccc2)C[C@@H]2c3cccc4c3c(cn4C)C[C@H]21 [METERGOLINE], the IC50 is reported as “Not Active”. With CCN(CC)CCNC(=O)c1cc(Cl)c(N)cc1OC [METOCLOPRAMIDE] the IC50 was “Not Active”. With Cc1ccc(Cl)c(Nc2ccccc2C(=O)O)c1Cl [MECLOFENAMIC ACID] the IC50 was “Not Active”. For CO[C@@]12[C@H](COC(N)=O)C3=C(C(=O)C(C)=C(N)C3=O)N1C[C@@H]1N[C@@H]12 [MITOMYCIN], the IC50 was “Not Active”.

Reference: ChEMBL document CHEMBL1909046, “DrugMatrix in vitro pharmacology data”
